Measurements taken from patent publication US9145425B2, “Cephem compound having catechol group” (SHIONOGI & CO., LTD., priority 2010, dated 2015).
Converted amounts (≈) assume the structure as drawn. Like-named read-outs stand apart in the source and are kept apart here.

Tests used:
Format in all cases: cell-based
[1] = tested on: Acinetobacter baumannii SR24396; assay: Minimum Inhibitory Concentration (MIC), agar plate incubation, Japan Society for Chemotherapy standard method
Description: (§1) The antimicrobial activity in vitro of the present compound (I) was determined.
(§2) Measurement of Minimum Inhibitory Concentration (MIC, μg/ml) was conducted according to the standard method of the Japan Society for Chemotherapy and the amount of bacteria for inoculation was 1000 cfu/spot, and sensitive disc medium was used as the test medium, and conducted using agar plate incubation.
(§3) In the tables, the unit of the values of inhibitory activity is μg/ml.

[2] = tested on: Klebsiella pneumoniae ATCC 700603; assay: as above
Description: as §1, §2, §3

[3] = tested on: Pseudomonas aeruginosa SR24; assay: as above; conditions: Pseudomonas aeruginosa SR24, no enzyme, ceftazidime sensitive strain, 1000 cfu/spot, sensitive disc medium; for MIC: read-out: Minimum Inhibitory Concentration (MIC)
Description: as §1, §2, §3

[4] = tested on: Pseudomonas aeruginosa SR27060; assay: as above
Description: as §1, §2, §3

[5] = tested on: Stenotrophomonas maltophilia SR21970; assay: Minimum Inhibitory Concentration (MIC), agar plate incubation, CLSI method
Description: as §1
Measurement of Minimum Inhibitory Concentration (MIC, μg/ml) was conducted according to the CLSI (Clinical and Laboratory Standards Institute) and the amount of bacteria for inoculation was 10000 cfu/spot, and Mueller-Hinton agar medium was used as the test medium, and conducted using agar plate incubation.
as §3

[6] = Acinetobacter baumannii SR24396, no enzyme, 1000 cfu/spot, sensitive disc medium, read-out: Minimum Inhibitory Concentration (MIC)
[7] = ATCC700603, Klebsiella pneumoniae ATCC 700603, SHV-18, ESBL producer strain, 1000 cfu/spot, sensitive disc medium, read-out: Minimum Inhibitory Concentration (MIC)
[8] = Pseudomonas aeruginosa SR27060, IMP-1, MBL producer strain (carbapenem resistant strain), 1000 cfu/spot, sensitive disc medium, read-out: Minimum Inhibitory Concentration (MIC)
[9] = Stenotrophomonas maltophilia SR21970, L-1, MBL producer strain (carbapenem resistant strain), 10000 cfu/spot, Mueller-Hinton agar medium, read-out: Minimum Inhibitory Concentration (MIC)
[10] = Acinetobacter baumannii SR24396, no enzyme, 1000 cfu/spot, sensitive disc medium
[11] = Klebsiella pneumoniae ATCC 700603, SHV-18, ESBL producer strain, 1000 cfu/spot, sensitive disc medium
[12] = Pseudomonas aeruginosa SR27060, IMP-1, MBL producer strain (carbapenem resistant strain), 1000 cfu/spot, sensitive disc medium
[13] = Stenotrophomonas maltophilia SR21970, L-1, MBL producer strain (carbapenem resistant strain), 10000 cfu/spot, Mueller-Hinton agar medium
[14] = Acinetobacter baumannii, SR24396, read-out: Minimum Inhibitory Concentration (MIC)
[15] = Klebsiella pneumoniae, ATCC700603, read-out: Minimum Inhibitory Concentration (MIC)
[16] = Pseudomonas aeruginosa, SR27060, read-out: Minimum Inhibitory Concentration (MIC)
[17] = Stenotrophomonas maltophilia, SR21970, read-out: Minimum Inhibitory Concentration (MIC)

Row | SMILES | MIC [1, 6] [µg/mL] | MIC [2, 7] [µg/mL] | MIC [3] [µg/mL] | MIC [4, 8] [µg/mL] | MIC [5, 9] [µg/mL] | Minimum Inhibitory Concentration (MIC) [1, 10] [µg/mL] | Minimum Inhibitory Concentration (MIC) [2, 11] [µg/mL] | Minimum Inhibitory Concentration (MIC) [4, 12] [µg/mL] | Minimum Inhibitory Concentration (MIC) [5, 13] [µg/mL] | other results
1 | CC(C)(O/N=C(\C(=O)N[C@@H]1C(=O)N2C(C(=O)[O-])=C(C[N+]3(Cc4nnc(-c5ccc(O)c(O)c5Cl)o4)CCCC3)CS[C@H]12)c1csc(N)n1)C(=O)[O-].[Na+] [Compound I-1] | 0.25 | 0.25 | 0.063 | 0.25 | 1 |  |  |  |  | 
2 | CC(C)(O/N=C(\C(=O)N[C@@H]1C(=O)N2C(C(=O)[O-])=C(C[N+]34CCC(CC3)N(C(=O)c3ccc(O)c(O)c3Cl)CC4)CS[C@H]12)c1csc(N)n1)C(=O)[O-].[Na+] [Compound I-5] | 0.125 | 0.25 | 0.063 | 0.5 | 0.5 |  |  |  |  | 
3 | CC(C)(O/N=C(\C(=O)N[C@@H]1C(=O)N2C(C(=O)[O-])=C(C[N@+]34CC[C@H](C3)N(C(=O)c3ccc(O)c(O)c3Cl)CC4)CS[C@H]12)c1csc(N)n1)C(=O)[O-].[Na+] [Compound I-6] | 0.125 | 1 | 0.063 | 0.5 | 1 |  |  |  |  | 
4 | Nc1nc(/C(=N/O[C@@H](CC(=O)[O-])C(=O)[O-])C(=O)N[C@@H]2C(=O)N3C(C(=O)[O-])=C(C[N+]45CCC(CC4)N(C(=O)c4ccc(O)c(O)c4Cl)CC5)CS[C@H]23)cs1.[Na+].[Na+] [Compound I-9] | 0.125 | 0.125 | 0.063 | 0.25 | 0.5 |  |  |  |  | 
5 | Nc1nc(C(=NOC(CC(=O)[O-])C(=O)[O-])C(=O)NC2C(=O)N3C(C(=O)[O-])=C(C[N+]45CCCC4CN(C(=O)c4ccc(O)c(O)c4Cl)CC5)CSC23)cs1.[Na+].[Na+] (stereo not drawn) [Compound I-14] |  |  |  |  |  | 0.125 | 0.5 | 0.25 | 1 | Minimum Inhibitory Concentration (MIC) [3]: 0.125 µg/mL
6 | CC(C)(ON=C(C(=O)NC1C(=O)N2C(C(=O)[O-])=C(C[N+]34CCCC3CN(C(=O)c3ccc(O)c(O)c3Cl)CC4)CSC12)c1csc(N)n1)C(=O)[O-].[Na+] (stereo not drawn) [Compound I-15] |  |  |  |  |  | 0.25 | 0.25 | 0.5 | 1 | Minimum Inhibitory Concentration (MIC) [3]: 0.063 µg/mL
7 | CC(ON=C(C(=O)NC1C(=O)N2C(C(=O)[O-])=C(C[N+]34CCCC3CN(C(=O)c3ccc(O)c(O)c3Cl)CC4)CSC12)c1csc(N)n1)C(=O)[O-].[Na+] (stereo not drawn) [Compound I-18] |  |  |  |  |  | 0.125 | 0.5 | 1 | 2 | Minimum Inhibitory Concentration (MIC) [3]: 0.063 µg/mL
8 | CC(C)(O/N=C(\C(=O)N[C@@H]1C(=O)N2C(C(=O)O)=C(C[N+]3(C)[C@@H]4CC[C@H]3C[C@@H](NC(=O)c3cc(O)c(O)cc3Cl)C4)CS[C@H]12)c1csc(N)n1)C(=O)[O-] (stereo partly drawn) [II-55] |  |  |  |  |  |  |  |  |  | MIC [1, 14]: 0.25 µg/mL (≈ 0.321 µM); MIC [2, 15]: 0.25 µg/mL (≈ 0.321 µM); MIC [4, 16]: 0.5 µg/mL (≈ 0.642 µM); MIC [5, 17]: 0.5 µg/mL (≈ 0.642 µM)
9 | C[N+]1(CC2=C(C(=O)[O-])N3C(=O)C(NC(=O)C(=NOC(CC(=O)O)C(=O)[O-])c4csc(N)n4)C3SC2)C2CCC1CC(NC(=O)c1cc(O)c(O)cc1Cl)C2.[Na+] (stereo not drawn) [II-56] |  |  |  |  |  | 0.25 | 0.25 | 0.5 | 0.5 | 
10 | CC(C)(O/N=C(\C(=O)N[C@@H]1C(=O)N2C(C(=O)O)=C(C[N@+]3(C)[C@@H]4CC[C@H]3C[C@@H](NC(=O)c3cc(F)c(O)c(O)c3F)C4)CS[C@H]12)c1csc(N)n1)C(=O)[O-] [III-9] |  |  |  |  |  |  |  |  |  | MIC [1, 14]: 0.125 µg/mL (≈ 0.16 µM); MIC [2, 15]: 0.125 µg/mL (≈ 0.16 µM); MIC [4, 16]: 0.25 µg/mL (≈ 0.321 µM); MIC [5, 17]: 0.5 µg/mL (≈ 0.641 µM)
11 | C[N+]1(CC2=C(C(=O)[O-])N3C(=O)C(NC(=O)C(=NOC(CC(=O)O)C(=O)[O-])c4csc(N)n4)C3SC2)C2CCC1CC(NC(=O)c1cc(F)c(O)c(O)c1F)C2.[Na+] (stereo not drawn) [III-10] |  |  |  |  |  | 0.125 | 0.125 | 0.25 | 0.5 | 
